{"source": "patent US10144730B2", "about": "“Inhibitors of c-Jun-N-terminal kinase (JNK)” (Dana-Farber Cancer Institute, Inc., priority 2011, dated 2018)", "assay_type_in_all_cases": "cell-based", "key": {"[1]": {"tested_on": "NF-kB nuclear translocation", "assay": "High-throughput microscopy, NF-kB nuclear translocation", "conditions": "Homo sapiens, A-375, A375 cells, TNF-α stimulation, read-out: Cellular EC50 NF-kB", "procedure": "(§1) A375 cells were stimulated with anisomycin (FIGS. 14A and 14C to 14F), IGF-1 (FIG. 14B), IL-6 (FIG. 14G), and TNF-α (FIG. 14H) for sixty minutes. The output of multiple signaling pathways was measured using high throughput microscopy at multiple concentrations of four JNK inhibitors and a control compound specific to each pathway DMSO (FIG. 14A), MK2206 (allosteric Akt inhibitor, Haoyuan Chemexpress Co., Limited. Hirai, et al., 2010) (FIG. 14B), PD0325901 (allosteric Mek inhibitor, Haoyuan Chemexpress Co., Limited. Barrett, et al., 2008) (FIGS. 14C and 14D), SB239063 (ATP-competitive p38 inhibitor, Haoyuan Chemexpress Co., Limited. Underwood et al., 2000) (FIGS. 14E and 14F), KIN001-040 (ATP-competitive JAK1,2,3 inhibitor, Haoyuan Chemexpress Co., Limited. Thompson et al., 2002) (FIG. 14G), and KIN001-208 (IKK inhibitor VIII, Haoyuan Chemexpress Co., Limited., Murata, et al., 2004) (FIG. 14H).\n(§2) Cells were plated at 7500 cells/well in 96-well microscopy plates (Corning) in recommended media for 24 hours, and then starved in media lacking serum for 16 hours. Cells were pre-treated for 180 minutes with 10-fold stock solutions of JNK inhibitors and for 10 min with control compounds MK2206, PD0325901, SB239063, KIN040, and KIN208 and treated with 10-fold stock solutions of IGF-1, IL-6, TNF-α (all PeproTech), or anisomycin for 60 minutes. Cells were fixed in 2% paraformaldehyde for 10 min at room temperature and washed with PBS-T (Phosphate Buffered Saline, 0.1% Tween 20). Cells were permeabilized in methanol for 10 min at room temperature, washed with PBS-T, and blocked in Odyssey Blocking Buffer (LI-COR Biosciences) for 1 hour at room temperature. Cells were incubated overnight at 4° C. with antibody specific for Erk1/2(pT202/pY204), Akt(pS473), c-Jun(pS73), pP38(T180/Y182) and pSTAT3(Y705) (Cell Signaling Technology), pRSK1(S380) and pMSK1(S376) (Epitomics), and NF-κB (Santa Cruz Biotechnology) diluted 1:400 in Odyssey Blocking Buffer. Cells were washed three times in PBS-T and incubated with rabbit-specific secondary antibody labeled with Alexa Fluor 647 (Invitrogen) diluted 1:2000 in Odyssey Blocking Buffer. Cells were washed once in PBS-T and once in PBS and incubated in 250 ng/ml Hoechst 33342 (Invitrogen) and 1:1000 Whole Cell Stain (blue; Thermo Scientific) solution. Cells were washed twice with PBS and imaged in an imageWoRx high-throughput microscope (Applied Precision). Data were plotted using DataPflex. […]"}, "phosphorylation of Erk": {"tested_on": "phosphorylation of Erk", "assay": "High-throughput microscopy, phosphorylation of Erk", "conditions": "Homo sapiens, A-375, A375 cells, anisomycin stimulation, read-out: Cellular EC50 pErk", "procedure": "as §1, §2"}, "c-Jun phosphorylation [2]": {"tested_on": "c-Jun phosphorylation", "assay": "LanthaScreen TR-FRET cell assay for c-Jun phosphorylation in HeLa cells", "conditions": "Homo sapiens; Hela cells, TNF-α stimulation; read-out: p-c-Jun EC50 (nM) Hela", "procedure": "Phosphorylation was determined by measuring the time resolved FRET (TR-FRET) between a terbium labeled phospho-c-Jun specific antibody and GFP. The cells were plated in white tissue culture treated 384 well plates at a density of 10,000 cell per well in 32 μL assay medium (Opti-MEM®, supplemented with 0.5% charcoal/dextran-treated FBS, 100 U/ml penicillin and 100 μg/ml streptomycin, 0.1 mM nonessential amino acids, 1 mM sodium pyruvate, 25 mM Hepes, pH 7.3, and lacking phenol red). After overnight incubation, cells were pretreated for 90 minutes with compound (at indicated concentration) diluted in 4 μL assay buffer followed by 30 min of stimulation with 5 ng/ml of TNF-α in 4 μL assay buffer (final assay volume was 40 μl). The medium was then removed by aspiration, and the cells were lysed by adding 20 μl of lysis buffer (20 mM Tris-HCl, pH 7.6, 5 mM EDTA, 1% Nonidet P-40 substitute, 5 mM NaF, 150 mM NaCl, and 1:100 protease and phosphatase inhibitor mix, SIGMA P8340 and P2850, respectively). The lysis buffer included 2 nM of the terbium-labeled anti-c-Jun (pSer73) detection antibodies (Life Technologies). After allowing the assay to equilibrate for 60 minutes at room temperature, TR-FRET emission ratios were determined on a BMG Pherastar fluorescence plate reader (BMG Labtech, Cary, N.C.) using the following parameters: excitation at 340 nm; emission at 520 nm and 490 nm; 100 μs lag time; 200 μs integration time; and emission ratio=Em520/Em490. All data were analyzed and plotted using Graphpad Prism 4.\n(§3) In parallel with biochemical evaluation, the ability of the compounds to inhibit JNK activity in cells was investigated using two independent assays formats. This is a critical issue because there are several reported JNK inhibitors with nanomolar biochemical potency that translate into micromolar cellular inhibitors. The most well characterized direct phosphorylation substrate of JNK is the transcription factor c-Jun."}, "c-Jun phosphorylation [3]": {"tested_on": "c-Jun phosphorylation", "assay": "High throughput microscopy of c-Jun phosphorylation in A375 cells", "conditions": "Homo sapiens, A-375", "procedure": "Cells were fixed in 2% paraformaldehyde for 10 min at room temperature and washed with PBS-T (Phosphate Buffered Saline, 0.1% Tween 20). Cells were permeabilized in methanol for 10 min at room temperature, washed with PBS-T, and blocked in Odyssey Blocking Buffer (LI-COR Biosciences) for 1 hour at room temperature. Cells were incubated overnight at 4° C. with antibody specific for Erk1/2(pT202/pY204), Akt(pS473), c-Jun(pS73), pP38(T180/Y182) and pSTAT3(Y705) (Cell Signaling Technology), pRSK1(S380) and pMSK1(S376) (Epitomics), and NF-κB (Santa Cruz Biotechnology) diluted 1:400 in Odyssey Blocking Buffer. […] Cells were washed twice with PBS and imaged in an imageWoRx high-throughput microscope (Applied Precision). Data were plotted using DataPflex.\nas §3"}, "phosphorylation of p38": {"tested_on": "phosphorylation of p38", "assay": "High-throughput microscopy, phosphorylation of p38", "conditions": "Homo sapiens, A-375, A375 cells, anisomycin stimulation, read-out: Cellular EC50 pP38", "procedure": "as §1, §2"}, "phosphorylation of Akt": {"tested_on": "phosphorylation of Akt", "assay": "High-throughput microscopy, phosphorylation of Akt", "conditions": "Homo sapiens, A-375, A375 cells, IGF-1 stimulation, read-out: Cellular EC50 pAkt", "procedure": "as §1, §2"}, "[4]": {"conditions": "A375 cells, anisomycin stimulation, high-throughput microscopy, Table 4, read-out: Cellular EC50 pc-Jun"}, "[5]": {"conditions": "A375 cells, anisomycin stimulation, read-out: p-c-Jun EC50 (nM) A375"}}}
{"smiles": "Cc1cc(NC(=O)c2cccc(NC(=O)/C=C/CN(C)C)c2)ccc1Nc1nccc(-c2cccnc2)n1", "note": "[JNK-IN-8]", "values": [{"measurement": "EC50", "setting": "[1]", "value": "> 10000", "unit": "nM"}, {"measurement": "EC50", "setting": "phosphorylation of Erk", "value": "> 10000", "unit": "nM"}, {"measurement": "EC50", "setting": "c-Jun phosphorylation [2]", "value": 486, "unit": "nM"}, {"measurement": "EC50", "setting": "c-Jun phosphorylation [3]; [4]", "value": 425, "unit": "nM"}, {"measurement": "EC50", "setting": "c-Jun phosphorylation [3]; [5]", "value": 338, "unit": "nM"}, {"measurement": "EC50", "setting": "c-Jun phosphorylation [3]; Table 5, A375, read-out: E50/A375", "value": 338, "unit": "nM"}, {"measurement": "EC50", "setting": "phosphorylation of p38", "value": "> 10000", "unit": "nM"}, {"measurement": "EC50", "setting": "phosphorylation of Akt", "value": "> 10000", "unit": "nM"}]}
{"smiles": "CN(C)C/C=C/C(=O)Nc1cccc(C(=O)Nc2ccc(Nc3nccc(/C(C#N)=C4\\Nc5ccccc5S4)n3)cc2)c1", "note": "[JNK-IN-12]", "values": [{"measurement": "EC50", "setting": "[1]", "value": "> 10000", "unit": "nM"}, {"measurement": "EC50", "setting": "phosphorylation of Erk", "value": "> 10000", "unit": "nM"}, {"measurement": "EC50", "setting": "c-Jun phosphorylation [2]", "value": 605, "unit": "nM"}, {"measurement": "EC50", "setting": "c-Jun phosphorylation [3]; [4]", "value": 125, "unit": "nM"}, {"measurement": "EC50", "setting": "c-Jun phosphorylation [3]; [5]", "value": 134, "unit": "nM"}, {"measurement": "EC50", "setting": "phosphorylation of p38", "value": "> 10000", "unit": "nM"}, {"measurement": "EC50", "setting": "phosphorylation of Akt", "value": "> 10000", "unit": "nM"}]}
